# In patent publication US8603976B2, “Methods of enhancing functioning of the large intestine” (1149336 Ontario, Inc., priority 1997, dated 2013):
# What was measured:
# Type in all cases: in vivo
# [1] = tested on: Female CD1 mice; assay: 5% dextran sulfate induced ulcerative colitis model in mice (Example 2)
# Source text: This experiment was designed to test the activity of GLP-2 in ameliorating disease symptoms in an animal model of colitis. A 5% dextran sulfate solution was used to induce ulcerative colitis in test mice (Okayasu et al., 1990, 98:694-702).
# Forty female CD1 mice (six-weeks old and approximately 25 g, obtained from Charles River) were used in the experiment. On day 1, the mice were weighed using a Mettler PJ300 scale and randomly allocated to 1 of eight treatment groups. The groups, each consisting of 5 mice housed together, were treated as follows:
# These two groups were fed normal drinking water.
# Group 1) Ten days of injections (PBS), day 7 to day 17, animals sacrificed day 17.
# Group 2) Ten days of injections human (Gly 2) GLP-2 (2.5 μg bid), day 7 to day 17, animals sacrificed day 17.
# Groups 3 and 4—Test Group
# Drinking water given to these groups contained 5% Dextran sulfate (DS).
# Group 3) DS given from day 7 to day 17, PBS injections given from day 7 to day 17, animals sacrificed day 17.
# Group 4) DS given from day 7 to day 17, human[Gly^2] GLP-2 (2.5 μg bid) injections given day 7 to day 17, animals sacrificed day 17.
# Groups 5 and 6—Test Group
# Drinking water contained 5% Dextran sulfate day 2 to day 9, followed by 4 days of normal drinking water. Ten days of injections were started day 4. […]
# Dextran sulfate (USB, Cleveland, Ohio, MW 40,000-50,000) was dissolved into double distilled water, and placed into the water bottles. Water bottles were topped up daily. GLP-2 peptide was reconstituted and aliquoted on the day prior to the first day of injection and kept in a −20 C. freezer. Human [Gly^2]GLP-2 (5 mg/mL) was reconstituted in PBS. One microliter of 5N NaOH was required to dissolve the peptide in a volume of 1 ml. The injection volume of 0.5 ml was constant throughout the experiment using ½ cc U-100 Insulin Syringes Becton Dickinson and Company, NJ). Control mice (cage 1) received the same volume (0.5 ml) of phosphate buffered saline (PBS—137 mM NaCl, 2.7 mM KCl, 4.3 mM Na2HPO4.7H2O, 1.4 mM KH2PO4, pH 7.3).
# Subcutaneous injections in the right hind quarter began on various days depending on the treatment conditions given above. All injections were twice a day, at 8 am and 6 pm. Mice in cages 1 and 2 were fasted on the day prior to sacrifice. Body weight measurements were made on day 1, day 7, day 12 and the day of sacrifice. The weight and length of the large intestine of each animal was measured after sacrifice.
# [2] = tested on: mice; assay: Mortality in mice exposed to 10% colitis-inducing dextran sulfate (Example 3); conditions: 10% dextran sulfate in drinking water, 2.5 μg per injection s.c. twice per day, after 9 days; saline group 3 of 10
# Experimental: Mice were also treated with 2 subcutaneous injections per day (0.5 ml) of either saline, or [GLY^2]hGLP-2, 2.5 μg per injection. After 9 days, the experiment was stopped.
# [3] = tested on: Female CD1 mice; assay: Effect of GLP-2 on small and large intestinal mass and protein content in mice (Example 1); conditions: 2.5 μg twice daily subcutaneously for 10 days
# Experimental: In this experiment, the effect of GLP-2 on both small and large intestinal mass, as well as the relative contribution of water to the increment in intestine weight, was examined.
# Female CD1 mice (6 weeks old) were treated with rat GLP-2, 2.5 μg twice daily (subcutaneously) for 10 days. Following treatment, mice were fasted 24 hours, anesthetized with CO2 and sacrificed. The small and large intestine was removed from the peritoneal cavity (from pylorus to cecum), cleaned, weighed and measured. For comparative purposes, 2 cm segments of proximal jejunum, ileum and colon were obtained from each animal from the identical anatomical positions (as measured from the pylorus and cecum) and analyzed for protein content, wet weight and dry weight (expressed as mean±S.E.M in mg/2 cm segment).
# For protein content, two 2 cm segments from the proximal jejunum, ileum and colon were removed, placed in 13 ml tubes containing 2 ml of PBS, homogenized for 20 seconds in a Brinkmann Homogenizer and placed on ice. The tubes were centrifuged for 5 min. at 1000 g and 100 μl aliquots of supernatant homogenate removed for determination of protein content using the modified Bradford method.
# To measure wet and dry weight, 2 cm intestinal segments were weighed, placed in culture tubes, reweighed, then freeze-dried overnight in a Fast-Freeze flask (Labconco) and reweighed.
# [4] = 5% DS day 7 to day 17, 2.5 μg bid s.c. day 7 to day 17, group 4 vs group 3 (PBS)
# [5] = normal drinking water, 2.5 μg bid s.c. for ten days, group 2 vs group 1 (PBS)
# [6] = 2 cm segment, vs PBS-treated mice, p<0.05
substance,measurement,setting,value
"[Gly^2]hGLP-2: human GLP-2 wherein the alanine at position 2 is replaced by a glycine; DPP-IV resistant analog (HGDGSFSDEMNTILDNLAARDFINWLIQTKITD; Glucagon-like peptide 2; UniProt P01275 146-178, looked up, variant A2G)",body weight through the course of the experiment,[1]; [4],maintain body weight better
same,large intestine weight at sacrifice,[1]; [4],significantly heavier large intestines
same,large intestine length during experimentally induced colitis,"[1]; 5% DS day 7 to day 17, 2.5 μg bid s.c., group 4 vs group 3 (PBS)","also exhibited, although to a lesser degree"
same,"morbidity, dehydration and reduction in mass of the large intestine caused by induced colitis","[1]; agonist given at the same time as 5% DS, day 7 to day 17, group 4 vs group 3","ameliorates the severe morbidity, dehydration, and reduction in mass of the large intestine"
same,large intestine length,[1]; [5],significant increase in large intestine length
same,post-treatment large intestinal mass,[1]; [5],causes an increase in large intestinal mass
same,survival,[2],7 of 10
"rat GLP-2: rat GLP-2, 33 amino acid peptide having the sequence SEQ ID NO: 2; used in Example 1 (HADGSFSDEMNTILDNLATRDFINWLIQTKITD; listed as Rattus sp.)",dry weight of intestinal segments from the proximal jejunum,[3]; [6],significantly increased
same,wet weight of intestinal segments from the proximal jejunum,[3]; [6],significantly increased
same,weights of the segments obtained from the colon,"[3]; 2 cm segment, wet and dry weight","slightly, but consistently, increased"
same,protein content in the colon,[3]; compared to PBS-treated mice,statistically significant increase
same,protein content in the jejunum,[3]; compared to PBS-treated mice,statistically significant increase
